Assay type in all cases: toxicity, cell-based
For one series, the system named is HEK-293T. Kind of series: Incucyte cell viability with HEK293T. The settings on record: human, 10 µM, compound concentration 10 uM.
In the next series the test system is Fibroblast. As to the kind of experiment: Incucyte cell viability with human fibroblast. The settings on record: 10 µM, compound concentration 10 uM.
The next series relates to U2OS. As to the kind of experiment: Incucyte cell viability with U2OS. The settings on record: human, 10 µM, compound concentration 10 uM.
Where [1] appears, read: 0 h, replicate number 1, timepoint 0 hours.
[2] abbreviates: 0 h, replicate number 2, timepoint 0 hours.
Setting [3] is: 6 h, replicate number 1, timepoint 6 hours.
[4] abbreviates: 12 h, replicate number 1, timepoint 12 hours.
Setting [5] is: 12 h, replicate number 2, timepoint 12 hours.
The mark [6] stands for this setting: 18 h, replicate number 1, timepoint 18 hours.
Where [7] appears, read: 18 h, replicate number 2, timepoint 18 hours.
Where [8] appears, read: 24 h, replicate number 1, timepoint 24 hours.
[9] abbreviates: 24 h, replicate number 2, timepoint 24 hours.
Where [10] appears, read: 6 h, replicate number 2, timepoint 6 hours.

Here are results for 9 compounds from ChEMBL document CHEMBL5058564, “EUbOPEN Chemogenomics Library 2 (Incucyte)” (2022).
Note: unitless GR value; below 1 slowed growth and below 0 cell loss.

With `CN[C@@H](C)C(=O)N[C@H](C(=O)N1CCC[C@H]1C(=O)Nc1snnc1-c1ccccc1)C1CCCCC1` [GDC-0152], the “Growth Rate” value in the series with HEK-293T (setting [1]) is given as 0.68; with HEK-293T (setting [2]) it was 0.53; in the series on HEK-293T (setting [3]), 0.43; with HEK-293T (setting [4]), 0.37; in the series on HEK-293T (setting [5]), 0.71; with HEK-293T (setting [6]), 0.36. The “Growth Rate” value in the series on HEK-293T (setting [7]) is 0.66; in the series on HEK-293T (setting [8]) it was 0.4; in the series on HEK-293T (setting [9]) it was 0.52; with Fibroblast (setting [1]), 0.95; in the series with Fibroblast (setting [2]), 0.59; with Fibroblast (setting [3]), -0.81. For the same compound, the “Growth Rate” value in the series with Fibroblast (setting [10]) is listed as -0.33; in the series with Fibroblast (setting [4]), -0.63; in the series on Fibroblast (setting [5]) it was -0.17; in the series on Fibroblast (setting [6]) it was -0.58; with Fibroblast (setting [7]), -0.22; in the series with Fibroblast (setting [8]), -0.44. Further, the “Growth Rate” value was -0.21 in the series with Fibroblast (setting [9]); -0.64 in the series on U2OS (setting [1]); 0.74 in the series on U2OS (setting [2]); 0.5 in the series on U2OS (setting [3]); 0.49 in the series with U2OS (setting [4]); 0.87 in the series with U2OS (setting [6]).
`O=C(Nc1cc(-c2cn[nH]c2)ccc1N1CCOCC1)c1ccc(-c2ccc3ncccc3c2)o1`: the “Growth Rate” value in the series with HEK-293T (setting [2]) was 0.28; in the series on HEK-293T (setting [3]), -0.01; in the series with HEK-293T (setting [10]), 0.26; in the series with HEK-293T (setting [4]), -0.14; in the series on HEK-293T (setting [5]), 0.02; in the series on HEK-293T (setting [6]), 0. Besides, the “Growth Rate” value in the series on HEK-293T (setting [7]) is recorded as 0.07; in the series on HEK-293T (setting [8]) it was 0.15; in the series with HEK-293T (setting [9]), 0.04; in the series with Fibroblast (setting [1]), 0.62; with Fibroblast (setting [2]), -0.67; with Fibroblast (setting [4]), 0.82. The “Growth Rate” value in the series with Fibroblast (setting [5]) is 0.89; in the series on Fibroblast (setting [6]), 0.43; in the series on Fibroblast (setting [7]) it was 0.89; in the series with Fibroblast (setting [8]) it was 0.3; with Fibroblast (setting [9]) it was 0.83; in the series on U2OS (setting [1]), 0.53. Further, the “Growth Rate” value in the series on U2OS (setting [3]) worked out at 0.9; in the series with U2OS (setting [4]), 0.6; with U2OS (setting [6]), 0.57; in the series on U2OS (setting [7]), 0.39; in the series on U2OS (setting [8]), 0.7; in the series with U2OS (setting [9]), 0.26.
As for `CC1=C(C)C(=O)C(C(C)(C)CC(=O)N(CCCCSC[C@H]2O[C@@H](n3cnc4c(N)ncnc43)[C@@H]3OC(C)(C)O[C@@H]32)Cc2cccc(-c3ccc(Cl)cc3)c2)=C(C)C1=O`, the “Growth Rate” value is recorded as 0.72 in the series with HEK-293T (setting [1]); 0.07 with HEK-293T (setting [2]); 0.85 with HEK-293T (setting [4]); 0.97 in the series on HEK-293T (setting [5]); 0.94 in the series on HEK-293T (setting [7]); 0.96 with HEK-293T (setting [8]). Further, the “Growth Rate” value in the series on Fibroblast (setting [1]) is listed as 0.04; in the series on Fibroblast (setting [2]), 0.08; in the series on U2OS (setting [1]), -0.32; in the series on U2OS (setting [4]), 0.3; in the series with U2OS (setting [5]), 0.93; in the series on U2OS (setting [6]), 0.49. Moreover, the “Growth Rate” value in the series with U2OS (setting [7]) was determined as 0.87; in the series with U2OS (setting [8]) it was 0.63; with U2OS (setting [9]) it was 0.92.
Take `CO/C1=C/C(C)=C\[C@@H](C)[C@@H](O)[C@@H](C)C/C(C)=C\C=C/[C@H](OC)C([C@@H](C)[C@@H](O)[C@H](C)[C@@]2(O)C[C@@H](O)[C@H](C)[C@@H](C(C)C)O2)OC1=O` (some centres not stated): the “Growth Rate” value is -0.8 with HEK-293T (setting [3]); -0.9 with HEK-293T (setting [10]); -0.61 in the series on HEK-293T (setting [4]); -0.69 with HEK-293T (setting [5]); -0.45 in the series with HEK-293T (setting [6]); -0.5 in the series with HEK-293T (setting [7]). The “Growth Rate” value in the series on HEK-293T (setting [8]) is on record as -0.36; in the series on HEK-293T (setting [9]), -0.38; in the series on Fibroblast (setting [1]), 0.09; in the series on Fibroblast (setting [2]) it was -0.31; in the series on Fibroblast (setting [3]), -0.77; in the series with Fibroblast (setting [10]), -0.59. Moreover, the “Growth Rate” value with Fibroblast (setting [4]) was -0.79; in the series on Fibroblast (setting [5]), -0.56; with Fibroblast (setting [6]) it was -0.72; in the series on Fibroblast (setting [7]) it was -0.46; with Fibroblast (setting [8]) it was -0.61; with Fibroblast (setting [9]), -0.4. For the same compound, the “Growth Rate” value with U2OS (setting [3]) stood at 0.5; with U2OS (setting [10]) it was 0.63; in the series on U2OS (setting [4]), 0.37; in the series on U2OS (setting [5]), 0.39; in the series on U2OS (setting [6]), 0.23; in the series with U2OS (setting [7]), 0.18. In addition, the results for the “Growth Rate” value in the series on U2OS (setting [8]) and with U2OS (setting [9]) were 0.14 and 0.12, respectively.
In the case of `COc1cc(OC)cc(C(=O)NNC(=O)Nc2cccc3ccccc23)c1`, the “Growth Rate” value with HEK-293T (setting [1]) worked out at 0.01; in the series with HEK-293T (setting [2]), 0.45; in the series with HEK-293T (setting [6]), 0.97; in the series on Fibroblast (setting [3]) it was 0.64; in the series with Fibroblast (setting [4]), 0.93; in the series with U2OS (setting [1]), 0.7. For the same compound, the “Growth Rate” value in the series on U2OS (setting [2]) is listed as -1; in the series with U2OS (setting [3]), 0.36; with U2OS (setting [4]) it was 1; in the series with U2OS (setting [5]), 0.87; in the series with U2OS (setting [6]), 0.78; in the series with U2OS (setting [7]), 0.77. In addition, the “Growth Rate” value is listed as 0.87 in the series with U2OS (setting [8]) and 0.86 in the series on U2OS (setting [9]).
Turning to `CCS(=O)(=O)Nc1ccc(Oc2ccc(F)cc2F)c(-c2cn(C)c(=O)c3[nH]ccc23)c1` [MIVEBRESIB], the “Growth Rate” value in the series on HEK-293T (setting [5]) was 0.78; with HEK-293T (setting [6]) it was 0.75; in the series with HEK-293T (setting [7]), 0.41; in the series on HEK-293T (setting [8]), 0.4; in the series with HEK-293T (setting [9]), 0.28; in the series with Fibroblast (setting [3]), -0.16. The “Growth Rate” value is reported as 0.52 in the series with Fibroblast (setting [10]), -0.35 in the series on U2OS (setting [2]), 0.85 with U2OS (setting [10]) and 0.95 in the series with U2OS (setting [9]).
Consider `CCCCCCCC/C=C\CCCCCCCC(N)=O` [OLEAMIDE], for which the “Growth Rate” value with HEK-293T (setting [1]) turned out to be 0.61; with HEK-293T (setting [2]) it was 0.35; in the series with HEK-293T (setting [3]), 0.79; in the series with HEK-293T (setting [4]) it was 0.8; in the series on HEK-293T (setting [5]) it was 0.99; in the series with HEK-293T (setting [6]) it was 0.89. The “Growth Rate” value with HEK-293T (setting [7]) stood at 0.94; in the series on HEK-293T (setting [8]) it was 0.96; in the series with HEK-293T (setting [9]) it was 1; in the series with Fibroblast (setting [1]), 0.63; in the series with Fibroblast (setting [2]) it was 0.02; in the series with Fibroblast (setting [10]), 0.82. The “Growth Rate” value in the series on U2OS (setting [1]) amounted to 0.24; with U2OS (setting [2]) it was 0.51; with U2OS (setting [3]), 0.78; in the series with U2OS (setting [10]) it was 1; with U2OS (setting [4]), 0.75; with U2OS (setting [5]), 0.79. Further, the “Growth Rate” value is on record as 0.76 in the series on U2OS (setting [6]), 0.89 in the series on U2OS (setting [7]) and 0.98 in the series on U2OS (setting [8]).
With `COc1ccc2c(c1)C(C(=O)N(Cc1ccc(N(C)C)cc1)c1ccc(C(C)C)cc1)CCC2.Cl` (configuration not stated), the “Growth Rate” value in the series on HEK-293T (setting [1]) stood at 0.39; in the series on HEK-293T (setting [2]), 0.72; with HEK-293T (setting [4]), 0.27; with HEK-293T (setting [5]) it was 0.46; in the series with HEK-293T (setting [6]), 0.43; in the series on HEK-293T (setting [7]) it was 0.59. The “Growth Rate” value in the series with HEK-293T (setting [8]) is given as 0.52; in the series with HEK-293T (setting [9]), 0.76; with Fibroblast (setting [3]), 0.76; with Fibroblast (setting [8]), 0.93; in the series with U2OS (setting [1]) it was -0.58; in the series with U2OS (setting [2]), -1. Moreover, the “Growth Rate” value is recorded as 0.25 in the series on U2OS (setting [3]); 0.93 in the series with U2OS (setting [4]); 0.84 with U2OS (setting [5]); 0.73 in the series on U2OS (setting [6]); 0.81 in the series with U2OS (setting [7]); 0.79 with U2OS (setting [9]).
As to `O=C1[C@H](Cc2ccc(O)cc2)N2C(=O)CCN(C(=O)NCc3ccccc3)[C@H]2CN1Cc1cccc2ccccc12`, the “Growth Rate” value in the series on HEK-293T (setting [1]) is 0.98; with HEK-293T (setting [2]), 0.37; with HEK-293T (setting [3]), -0.42; in the series on HEK-293T (setting [10]) it was -0.2; with HEK-293T (setting [4]), -0.35; in the series on HEK-293T (setting [5]) it was -0.29. In addition, the “Growth Rate” value in the series with HEK-293T (setting [6]) is recorded as -0.29; in the series with HEK-293T (setting [7]), -0.22; with HEK-293T (setting [8]), -0.24; in the series with HEK-293T (setting [9]), -0.21; with Fibroblast (setting [1]), 0.78; in the series on Fibroblast (setting [2]), 0.82. Besides, the “Growth Rate” value in the series on Fibroblast (setting [3]) was -0.77; with Fibroblast (setting [10]) it was 0.03; in the series on Fibroblast (setting [4]) it was -0.6; in the series with Fibroblast (setting [5]), -0.16; in the series on Fibroblast (setting [6]), -0.71; in the series on Fibroblast (setting [7]), -0.07. Also, the “Growth Rate” value in the series with Fibroblast (setting [8]) is recorded as -0.54; in the series with Fibroblast (setting [9]), -0.02; in the series with U2OS (setting [1]), -0.65; in the series with U2OS (setting [2]), 0.18; in the series with U2OS (setting [3]), 0.4; in the series with U2OS (setting [10]), 0.87. For the same compound, the “Growth Rate” value with U2OS (setting [4]) was 0.14; in the series on U2OS (setting [5]) it was 0.6; in the series on U2OS (setting [6]) it was 0.11; in the series with U2OS (setting [7]) it was 0.51; with U2OS (setting [8]) it was 0.3; in the series with U2OS (setting [9]) it was 0.57.
